Measured values from patent US20140315972A1, “RS)-2-(2-oxo-4-phenylpyrrolidin-1-yl)acetamide compound having modulatory activity with a commensurate effect, pharmaceutical substance (variants) and its application, composition (variants) thereof” (priority 2011, published 2014).
Read-outs that look alike come from different tables or passages of the source. Marks after values point to notes of the source that are not given here.

How the values were obtained:
Format in all cases: in vivo
[1] = Distribution by internal organs after oral administration (GLC); details: rats, 100 mg/kg orally; for concentration at 0.25 h / concentration at 0.5 h / concentration at 1 h / concentration at 1.5 h / concentration at 2 h / concentration at 4 h / concentration at 6 h / concentration at 8 h: both sexes, outbred white, rat, po; for concentration at 0.5 h: 0.50 h; for concentration at 1.5 h: 1.50 h
Protocol: The degree of tropism of the compound in various organs by quantitative content varies and is arranged in descending order as follows: liver, kidneys, heart, and brain. Rapid penetration into the brain confirms the good kinetic ability to penetrate through the blood-brain barrier. In 15 minutes, its presence is detected in the brain, heart, liver and kidneys. In the brain, liver and kidneys, the maximum concentration is achieved in an hour, and 6 hours after oral administration the compound is not detectable any more. […] The maximum concentration of Phenotropil in the myocardium is detected later than in the brain, but it is eliminated from the myocardium also two hours later. In the liver, the maximum concentration is found after an hour and then the concentration is gradually decreasing. One hour after administration, the concentration in the kidneys reaches the maximum, with a gradual decrease further on.

[2] = test system: mice; assay: Fertility of female mice aged 510 days
Protocol: Investigation of the effect of Phenotropil on the fertility of mice was performed in the spring period in females aged 510 days (30 animals per group). Termination of the reproductive age was established by placing every three females to a fertile male. Mating was determined by the presence of vaginal plugs. Females not mated during one month were included in the study. Throughout the entire study period (32 days), Phenotropil was administered one time per day intragastrically to the experimental group in a dose of 100 mg/kg with distilled water; the control animals received distilled water. On the eighth day of the experiment, the females were introduced to males in the following combination: two experimental and one control animal or […]. The procedure was repeated for females not covered at each stage. The same fertile males were not used for mating.

[3] = test system: mice; assay: Apomorphine verticalization (positive symptoms of schizophrenia); details: for Intensity of verticalization in points: mice, apomorphine 2 mg/kg s.c.
Protocol: Studies have been conducted on white outbred male mice (18-24 g), in comparison with the olanzapine (Zyprexa) with intraperitoneal injection.
In the model of positive symptoms of schizophrenia associated with hyperactivation of the dopamine systems, which allows to identify the ability of substances to block the dopaminergic transmission in the mesolimbic system of the brain, Phenotropil (100, 200, and 300 mg/kg) reduced the apomorphine-induced (2 mg/kg subcutaneously) verticalization intensity scores (Table 4) by 45%, by 2.0 and 2.6 times, respectively.

[4] = test system: mice; assay: Maximum life span (MLS) of mice; details: for The maximum life span (number of days in %): mice, change vs untreated control = 100
Protocol: The maximum life span (MLS) of mice according to our long-term statistical observations is 2.7-3, 2 years, i.e. in average 2.95 years or 1077 days. For this study we selected mice (10 individuals per group), males with dominant behavior in mixed groups, that safely survived to 985 days without signs of pronounced senility and with satisfactory orientation-exploratory behavior, determined by the “open field test” method. Phenotropil in doses of 25, 50 and 100 mg/kg was administered orally with 5.0% glucose solution. Glucose solution was used solely to improve the solubility of the drug. One control group received the glucose solution and the second one—distilled water. The third control group was not treated.

[5] = test system: HSP32; assay: HSP32 level in brain structures (Western blot); details: Wistar rats, no Ns
[6] = test system: rats; assay: Scopolamine-induced CRPA amnesia in rats 30-35 days of age
Excerpt: Phenotropil has a pronounced mnemotropic and nootropic activity. The results of the study of the antiamnestic activity (classical technique in the equipment manufactured by Lafayette Instrument Co, USA) in the retrograde amnesia of the passive avoidance conditional reflex (CRPA) induced by maximal electroshock (MES) and scopolamine in male rats (180-250 g) are shown in Table 7. […] Taking into account the studies using the open field and cross maze tests, the nootropic action component of the modulatory drug not only may be more pronounced, but is broader in manifestation depending on the type of disorder or in unfamiliar situational conditions. The pronounced nootropic activity of Phenotropil (100, 200, 300 mg/kg) also manifests in rat pups of both sexes 30-35 days of age (Table 7.1) after scopolamine-induced CRPA amnesia.
In studying immature animals, it must be considered that to generate CRPA it is required, as was established, to apply higher educational incentives (0.6 mA, 8 pulses vs 5 pulses at 0.45 mA in adult rats) with re-training (after 48 hours). Development of amnesia also requires a higher dose of scopolamine (1.3 mg/kg) in rat pups. […] Phenotropil has not only a psychomodulatory (Ψ-modulatory) activity but also a Ψ-operandmodulatory activity given that the mnemotropic effect is associated with the expression of specific proteins and genes involved in memory, attention and learning.

[7] = brain, read-out: Contents of Phenotropil in brain
[8] = heart, read-out: Contents of Phenotropil in heart
[9] = kidney, read-out: Contents of Phenotropil in kidney
[10] = liver, read-out: Contents of Phenotropil in liver
[11] = 100 mg/kg i.g. daily, by the morning of day 9

NC(=O)CN1CC(c2ccccc2)CC1=O (racemic) [Compound 1, (RS)-2-(2-oxo-4-phenylpyrrolidine-1-yl)acetamide]
concentration at 0.25 h [1, 7]: 1600 ± 200 ng/g | concentration at 0.5 h [1, 7]: 2000 ± 300 ng/g | concentration at 1 h [1, 7]: 6400 ± 800 ng/g | concentration at 1.5 h [1, 7]: 4000 ± 600 ng/g | concentration at 2 h [1, 7]: 1200 ± 300 ng/g | concentration at 4 h [1, 7]: 400 ± 200 ng/g | concentration at 0.25 h [1, 8]: 3700 ± 600 ng/g | concentration at 0.5 h [1, 8]: 7900 ± 900 ng/g | concentration at 1 h [1, 8]: 10100 ± 1000 ng/g | concentration at 1.5 h [1, 8]: 14300 ± 1300 ng/g | concentration at 2 h [1, 8]: 12600 ± 1200 ng/g | concentration at 4 h [1, 8]: 8400 ± 1000 ng/g | concentration at 6 h [1, 8]: 4400 ± 800 ng/g | concentration at 0.25 h [1, 9]: 33200 ± 3400 ng/g | concentration at 0.5 h [1, 9]: 37500 ± 4000 ng/g | concentration at 1 h [1, 9]: 55700 ± 5800 ng/g | concentration at 1.5 h [1, 9]: 50400 ± 6000 ng/g | concentration at 2 h [1, 9]: 37200 ± 4100 ng/g | concentration at 4 h [1, 9]: 28000 ± 3200 ng/g | concentration at 6 h [1, 9]: 16000 ± 2100 ng/g | concentration at 8 h [1, 9]: 10100 ± 1300 ng/g | concentration at 0.25 h [1, 10]: 25600 ± 2400 ng/g | concentration at 0.5 h [1, 10]: 30100 ± 4300 ng/g | concentration at 1 h [1, 10]: 75800 ± 8200 ng/g | concentration at 1.5 h [1, 10]: 67700 ± 7100 ng/g | concentration at 2 h [1, 10]: 59600 ± 5400 ng/g | concentration at 4 h [1, 10]: 30200 ± 3400 ng/g | concentration at 6 h [1, 10]: 17700 ± 2100 ng/g | concentration at 8 h [1, 10]: 11400 ± 1600 ng/g | time after which compound is not detectable (brain, liver and kidneys as printed) [1]: 6 h | time of complete elimination from the heart [1]: 8 h | time of first detection in brain, heart, liver and kidneys [1]: 15 min | time of maximum concentration in brain, liver and kidneys [1]: in an hour | time of maximum concentration in the heart [1]: 1 hour 50 minutes | females left uncovered (of 30) ([2]; 100 mg/kg i.g. daily, after 32 days): 6 | females covered (of 30) [2, 11]: 9 | females covered, % of the total number in the group [2, 11]: 30.0% | females covered (of 30) ([2]; 100 mg/kg i.g. daily, by the morning of day 17): 11 | females covered (of 30) ([2]; 100 mg/kg i.g. daily, by the morning of day 25): 4 | Fertility (% of animals in the group) ([2]; mice, 100 mg/kg): 80.0 * % | reduction of verticalization intensity ([3]; 1 mg/kg): 26% | reduction of verticalization intensity ([3]; 10 mg/kg): 66.5% | reduction of verticalization intensity ([3]; 100 mg/kg): 45% | reduction of verticalization intensity ([3]; 200 mg/kg): 2.0 times | reduction of verticalization intensity ([3]; 300 mg/kg): 2.6 times | Intensity of verticalization in points ([3]; 100 mg/kg i.p.): 27 ± 8.7 points | Intensity of verticalization in points ([3]; 200 mg/kg i.p.): 25 ± 5.1 points | Intensity of verticalization in points ([3]; 300 mg/kg i.p.): 19 ± 5.1 points | increase of maximum life span ([4]; 25 mg/kg): 23.3% | increase of maximum life span ([4]; 100 mg/kg): 24.0% | increase of life span, average of all experimental groups ([4]; male mice aged 985 days, 25, 50, 100 mg/kg orally): 22.0% | The maximum life span (number of days in %) ([4]; 25 mg/kg + 5.0% glucose solution): +20.1 * % | The maximum life span (number of days in %) ([4]; 50 mg/kg + 5.0% glucose solution): +15.0 * % | The maximum life span (number of days in %) ([4]; 100 mg + 5.0% glucose solution): +20.8 * % | HSP32 Total vs outbred control ([5]; 200 mg/kg single): +68.8 * % | decrease of gene expression (heat shock protein) ([5]; tested dose): 17.7% | LP1 (training) ([6]; 100 mg/kg): 7.2 ± 2.8 | LP2 (at 24 hours) ([6]; 100 mg/kg): 25.2 ± 3.8 | ΔLP ([6]; 100 mg/kg): 18.0 ± 2.9 | LP1 (training) ([6]; 200 mg/kg): 11.0 ± 3.0 | LP2 (at 24 hours) ([6]; 200 mg/kg): 45.2 ± 7.3 | ΔLP ([6]; 200 mg/kg): 34.2 ± 9.0 | LP1 (training) ([6]; 300 mg/kg): 8.0 ± 3.0 | LP2 (at 24 hours) ([6]; 300 mg/kg): 82.4 ± 4.3 | ΔLP ([6]; 300 mg/kg): 74.4 ± 3.7
